This passage reports solubility results from ChEMBL document CHEMBL1134968, “Prodrug and covalent linker strategies for the solubilization of dual-action antioxidants/iron chelators” (Bioorg Med Chem Lett, 2002).

Converted amounts (≈) assume the structure as drawn.

One series in a line: Compound was tested for its solubility in water. It is filed as ADME. The conditions noted are these: read-out: S.
Turning to `Cc1c(C)c2c(c(C)c1OC(=O)CCCN)CC(CCn1ccc(=O)c(O)c1C)O2` (stereo not given), the solubility was found to be 10000 µg/mL (≈ 24.1 mM). For the molecule `CNCC(=O)Oc1c(C)c(C)c2c(c1C)CC(CCn1ccc(=O)c(O)c1C)O2` (stereo not given), the solubility is > 20000 µg/mL. On the same count and under the same terms, as for `Cc1c(C)c2c(c(C)c1O)CC(CCn1ccc(=O)c(O)c1C)O2` (stereo not given), the figure is < 100 µg/mL. Still for that read-out and setting: as for `Cc1c(C)c2c(c(C)c1OC(=O)CCN)CC(CCn1ccc(=O)c(O)c1C)O2` (stereo not given), the figure is 10000 µg/mL (≈ 25 mM); as for `Cc1c(O)c(=O)ccn1CCOCCOCCOCCOCCOCCCc1cc(C(C)(C)C)c(O)c(C(C)(C)C)c1`, < 100 µg/mL; as for `Cc1c(OC(=O)CCN)c(=O)ccn1CCCc1cc(C(C)(C)C)c(O)c(C(C)(C)C)c1`, > 20000 µg/mL.

In the case of `Cc1c(C)c2c(c(C)c1O)CCC(C)(CNCCCCn1ccc(=O)c(O)c1C)O2` (stereo not given), the solubility was < 100 µg/mL.

As to `CC(=O)Oc1c(C)n(CCCc2cc(C(C)(C)C)c(O)c(C(C)(C)C)c2)ccc1=O`, the solubility is < 100 µg/mL. Still for that read-out and setting: in the case of `Cc1c(OC(=O)c2ccc(N)cc2)c(=O)ccn1CCCc1cc(C(C)(C)C)c(O)c(C(C)(C)C)c1` it was < 100 µg/mL; in that of `Cc1c(O)c(=O)ccn1CCOCCOCCOCCOCCCc1cc(C(C)(C)C)c(O)c(C(C)(C)C)c1`, < 100 µg/mL. The same measure, in the same setting: in the case of `Cc1c(C)c2c(c(C)c1OC(=O)CN(C)C)CC(CCn1ccc(=O)c(O)c1C)O2` (stereo not given) it was > 20000 µg/mL; in that of `Cc1c(C)c2c(c(C)c1OC(=O)c1ccc(N)cc1)CC(CCn1ccc(=O)c(O)c1C)O2` (stereo not given), < 100 µg/mL; in that of `Cc1c(O)c(=O)ccn1CCCc1cc(C(C)(C)C)c(O)c(C(C)(C)C)c1`, < 100 µg/mL.

Regarding `Cc1c(C)c2c(c(C)c1OC(=O)C(N)C(C)C)CC(CCn1ccc(=O)c(O)c1C)O2` (stereo not given), the solubility is > 20000 µg/mL.

A short description of the next series: Compound was tested for its solubility in DMSO/H2O in a ratio of (1:9). The series is classed as ADME. To be noted: DMSO/H2O (1:9); read-out: S.
As for `Cc1c(O)c(=O)ccn1CCNCc1cc(C(C)(C)C)c(O)c(C(C)(C)C)c1`, the solubility worked out at 10000 µg/mL.
